Earlier results in patent US20210353783A1, “IMAGING AGENTS FOR RADIOLABELING EXOGENOUS AND ENDOGENOUS ALBUMIN” (CENTURION BIOPHARMA CORPORATION, priority 2018, published 2021).

Legend:
[1] = human, after intravenous administration, bound to cysteine-34 of endogenous albumin
circulating albumin = circulating albumin (Homo sapiens, UniProt P02768)
[2] = phase 1-3 clinical trials

Chain of circulating albumin (P02768 25-609): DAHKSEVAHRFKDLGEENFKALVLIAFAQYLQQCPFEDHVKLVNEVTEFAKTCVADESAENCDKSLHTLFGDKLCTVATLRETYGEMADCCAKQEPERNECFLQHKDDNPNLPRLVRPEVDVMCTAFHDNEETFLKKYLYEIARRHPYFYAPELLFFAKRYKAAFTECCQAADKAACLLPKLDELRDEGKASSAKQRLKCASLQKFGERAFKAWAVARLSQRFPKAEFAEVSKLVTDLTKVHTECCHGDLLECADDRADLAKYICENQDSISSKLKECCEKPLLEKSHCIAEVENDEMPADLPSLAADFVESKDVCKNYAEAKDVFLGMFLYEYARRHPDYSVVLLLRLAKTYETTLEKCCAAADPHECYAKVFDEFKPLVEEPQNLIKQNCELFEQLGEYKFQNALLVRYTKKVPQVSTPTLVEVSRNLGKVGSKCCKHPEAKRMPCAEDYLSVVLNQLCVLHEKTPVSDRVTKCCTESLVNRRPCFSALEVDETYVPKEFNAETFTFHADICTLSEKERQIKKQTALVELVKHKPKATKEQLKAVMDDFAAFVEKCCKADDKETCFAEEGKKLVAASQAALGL

In the case of `COc1cccc2c1C(=O)c1c(O)c3c(c(O)c1C2=O)C[C@@](O)(/C(CO)=N/NC(=O)CCCCCN1C(=O)C=CC1=O)C[C@@H]3O[C@H]1C[C@H](N)[C@H](O)[C@H](C)O1` [aldoxorubicin, (6-maleimidocaproyl)hydrazone derivative of doxorubicin], the t1/2 in man [1] is given as 20 to 21 h, the “binding to circulating albumin” value (circulating albumin) is given as “rapidly and selectively bound to circulating albumin within a few minutes” and the cardiotoxicity [2] is given as “lack of cardiotoxicity”. The “increase in the maximum tolerated dose (MTD) compared to conventional doxorubicin” value [2] was 3.5 fold.
